The target in the first experiment is T1, Human macrophage mannose receptor 1 (MRC1) (Homo sapiens, UniProt P22897).
T1 sequence (P22897 19-1456): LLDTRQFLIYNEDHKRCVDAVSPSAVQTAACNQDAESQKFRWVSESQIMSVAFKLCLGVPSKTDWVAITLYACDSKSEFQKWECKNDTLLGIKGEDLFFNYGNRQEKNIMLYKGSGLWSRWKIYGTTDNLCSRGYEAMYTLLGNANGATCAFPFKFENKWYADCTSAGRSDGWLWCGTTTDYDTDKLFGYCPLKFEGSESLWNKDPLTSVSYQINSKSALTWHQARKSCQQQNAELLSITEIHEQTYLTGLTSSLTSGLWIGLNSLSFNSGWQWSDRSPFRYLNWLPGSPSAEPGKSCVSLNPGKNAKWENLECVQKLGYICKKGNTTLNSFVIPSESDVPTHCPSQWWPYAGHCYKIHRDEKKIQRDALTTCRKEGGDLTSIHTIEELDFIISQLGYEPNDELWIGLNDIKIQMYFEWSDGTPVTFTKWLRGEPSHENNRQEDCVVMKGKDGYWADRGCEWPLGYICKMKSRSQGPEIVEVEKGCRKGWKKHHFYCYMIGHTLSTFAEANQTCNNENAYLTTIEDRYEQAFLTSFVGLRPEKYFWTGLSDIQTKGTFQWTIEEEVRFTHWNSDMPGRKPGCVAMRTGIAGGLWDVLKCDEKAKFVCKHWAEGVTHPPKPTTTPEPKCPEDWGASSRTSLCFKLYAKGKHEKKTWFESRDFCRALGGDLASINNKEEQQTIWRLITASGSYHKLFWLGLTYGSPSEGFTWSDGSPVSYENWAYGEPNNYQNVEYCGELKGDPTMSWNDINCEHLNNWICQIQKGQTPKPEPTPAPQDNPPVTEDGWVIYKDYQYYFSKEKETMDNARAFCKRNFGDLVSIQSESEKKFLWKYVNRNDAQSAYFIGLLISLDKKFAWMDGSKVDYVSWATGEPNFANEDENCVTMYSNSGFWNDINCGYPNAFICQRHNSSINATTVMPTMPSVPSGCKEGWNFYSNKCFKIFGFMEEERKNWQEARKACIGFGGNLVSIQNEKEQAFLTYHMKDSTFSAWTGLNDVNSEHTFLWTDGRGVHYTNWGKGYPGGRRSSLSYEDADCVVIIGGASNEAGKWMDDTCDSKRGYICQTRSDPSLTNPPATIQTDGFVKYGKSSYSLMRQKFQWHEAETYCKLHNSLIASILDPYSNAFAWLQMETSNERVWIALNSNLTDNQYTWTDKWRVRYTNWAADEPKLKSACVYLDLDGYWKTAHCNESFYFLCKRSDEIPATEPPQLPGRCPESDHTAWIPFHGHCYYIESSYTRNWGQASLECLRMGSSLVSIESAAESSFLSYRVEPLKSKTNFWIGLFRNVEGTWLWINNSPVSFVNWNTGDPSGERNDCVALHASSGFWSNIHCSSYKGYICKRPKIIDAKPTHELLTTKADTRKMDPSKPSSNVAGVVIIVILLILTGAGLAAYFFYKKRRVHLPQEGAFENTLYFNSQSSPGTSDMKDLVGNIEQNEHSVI
Briefly: MRC1 competition binding assay with Eu-mannosylated-BSA. To be noted: Method E: 96-well plate; IP = inflection point; read-out: MRC1 Binding IP.
Experimental: The competition binding assay for Human macrophage mannose receptor 1 (MRC1) utilized a ligand, mannosylated-BSA labeled with the DELFIA Eu-N1-ITC reagent, as reported in the literature. Assay was performed either in a 96-well plate with 100 μL well volume (Method E) or in a 384-well plate with 25 μL well volume (Method F). […] The antibody was incubated in the plate for 1 hr at rt with shaking. The plate was washed with wash buffer 3-5 times followed by addition of MRC1 (2 ng/μl final concentration) in PBS containing 1% stabilizer BSA. The plate was incubated at rt with gentle shaking for 1 hr. The plate was washed three times with wash buffer. The IOC molecules in 12.5 μL (or 50 μL depending on plate format) buffer at appropriate concentrations were added followed by 12.5 μL (or 50 μL) Eu-mannosylated-BSA (0.1 nm final concentration) in 50 mM Tris, pH 7.5 containing 100 mM NaCl, 5 mM CaCl2, 1 mM MgCl2 and 0.2% stabilizer BSA. The plate was incubated for 2 hrs at rt with shaking followed by washing three times with wash buffer.
On to `CC(=O)[C@H](CCCCN)NC(=O)CCCCC(=O)N[C@@H](CCC(=O)NCCCC[C@@H](C(=O)NCCO[C@H]1O[C@H](CO)[C@@H](O)[C@H](O)[C@@H]1O)N(CC(=O)NCCO[C@H]1O[C@H](CO)[C@@H](O)[C@H](O)[C@@H]1O)CC(=O)NCCO[C@H]1O[C@H](CO)[C@@H](O)[C@H](O)[C@@H]1O)C(=O)N[C@@H](CCC(=O)NCCCC[C@@H](C(=O)NCCO[C@H]1O[C@H](CO)[C@@H](O)[C@H](O)[C@@H]1O)N(CC(=O)NCCO[C@H]1O[C@H](CO)[C@@H](O)[C@H](O)[C@@H]1O)CC(=O)NCCO[C@H]1O[C@H](CO)[C@@H](O)[C@H](O)[C@@H]1O)C(=O)N[C@@H](CC(C)C)C(=O)NCCCC[C@@H](C(=O)NCCO[C@H]1O[C@H](CO)[C@@H](O)[C@H](O)[C@@H]1O)N(CC(=O)NCCO[C@H]1O[C@H](CO)[C@@H](O)[C@H](O)[C@@H]1O)CC(=O)NCCO[C@H]1O[C@H](CO)[C@@H](O)[C@H](O)[C@@H]1O` [IOC-56], for which the IC50 was determined as 30.9 nM.

With `CC(=O)[C@H](CCCCN)NC(=O)CCCCC(=O)N[C@@H](CCC(=O)NCCO[C@H]1O[C@H](CO)[C@@H](O)[C@H](O)[C@@H]1O)C(=O)N[C@@H](CCC(=O)NCCO[C@H]1O[C@H](CO)[C@@H](O)[C@H](O)[C@@H]1O)C(=O)N[C@@H](CCC(=O)NCCO[C@H]1O[C@H](CO)[C@@H](O)[C@H](O)[C@@H]1O)C(=O)NCCO[C@H]1O[C@H](CO)[C@@H](O)[C@H](O)[C@@H]1O` [IOC-16], the IC50 is 86.7 nM.

Staying with this experiment, now noted: Method F: 384-well plate; IP = inflection point; read-out: MRC1 Binding IP.
`CC(=O)[C@H](CCCCN)NC(=O)CCCCC(=O)NCC(=O)N[C@@H](CCC(=O)N[C@@H](CCC(=O)NCCCCCC(=O)N(CCOC1O[C@H](CO)[C@@H](O)[C@H](O)[C@@H]1O)CCO[C@H]1O[C@H](CO)[C@@H](O)[C@H](O)[C@@H]1O)C(=O)NCCCCCC(=O)N(CCOC1O[C@H](CO)[C@@H](O)[C@H](O)[C@@H]1O)CCOC1O[C@H](CO)[C@@H](O)[C@H](O)[C@@H]1O)C(=O)NCCCCCC(=O)NCCO[C@H]1O[C@H](CO[C@H]2O[C@H](CO)[C@@H](O)[C@H](O)[C@@H]2O)[C@@H](O)[C@H](O[C@H]2O[C@H](CO)[C@@H](O)[C@H](O)[C@@H]2O)[C@@H]1O` (some centres unmarked) [IOC-35]: the IC50 turned out to be 16.6 nM.

Take `CC(=O)[C@H](CCCCN)NC(=O)CCCCCNC(=O)[C@H](CCCCNC(=O)CCOCCOCCNC(=O)CN(CC(=O)NCCO[C@@H]1O[C@@H](C)[C@@H](O)[C@@H](O)[C@@H]1O)CC(=O)NCCO[C@@H]1O[C@@H](C)[C@@H](O)[C@@H](O)[C@@H]1O)NC(=O)[C@H](CCCCNC(=O)CCOCCOCCNC(=O)CN(CC(=O)NCCO[C@@H]1O[C@@H](C)[C@@H](O)[C@@H](O)[C@@H]1O)CC(=O)NCCO[C@@H]1O[C@@H](C)[C@@H](O)[C@@H](O)[C@@H]1O)NC(=O)CCOCCOCCNC(=O)CN(CC(=O)NCCO[C@@H]1O[C@@H](C)[C@@H](O)[C@@H](O)[C@@H]1O)CC(=O)NCCO[C@@H]1O[C@@H](C)[C@@H](O)[C@@H](O)[C@@H]1O` [IOC-43]: the IC50 came to 8.25 nM.

For `CC(=O)[C@H](CCCCN)NC(=O)CCCCC(=O)N[C@@H](CCC(=O)N[C@@H](CCC(=O)N[C@@H](CCC(=O)N[C@@H](CCC(=O)N[C@@H](CCC(=O)NCCO[C@@H]1O[C@@H](C)[C@@H](O)[C@@H](O)[C@@H]1O)C(=O)NCCO[C@@H]1O[C@@H](C)[C@@H](O)[C@@H](O)[C@@H]1O)C(=O)NCCO[C@@H]1O[C@@H](C)[C@@H](O)[C@@H](O)[C@@H]1O)C(=O)NCCO[C@@H]1O[C@@H](C)[C@@H](O)[C@@H](O)[C@@H]1O)C(=O)NCCO[C@@H]1O[C@@H](C)[C@@H](O)[C@@H](O)[C@@H]1O)C(=O)NCCO[C@@H]1O[C@@H](C)[C@@H](O)[C@@H](O)[C@@H]1O` [IOC-54], the IC50 is 8.91 nM.

Consider `CC(=O)[C@H](CCCCN)NC(=O)CCCCCNC(=O)[C@H](CCCCNC(=O)CN(CC(=O)NCCO[C@@H]1O[C@@H](C)[C@@H](O)[C@@H](O)[C@@H]1O)CC(=O)NCCO[C@@H]1O[C@@H](C)[C@@H](O)[C@@H](O)[C@@H]1O)NC(=O)[C@H](CCCCNC(=O)CN(CC(=O)NCCO[C@@H]1O[C@@H](C)[C@@H](O)[C@@H](O)[C@@H]1O)CC(=O)NCCO[C@@H]1O[C@@H](C)[C@@H](O)[C@@H](O)[C@@H]1O)NC(=O)CN(CC(=O)NCCO[C@@H]1O[C@@H](C)[C@@H](O)[C@@H](O)[C@@H]1O)CC(=O)NCCO[C@@H]1O[C@@H](C)[C@@H](O)[C@@H](O)[C@@H]1O` [IOC-47], for which the IC50 was found to be 10.6 nM.

In the case of `CC(=O)[C@H](CCCCN)NC(=O)CCCCC(=O)NCC(=O)N[C@@H](CCC(=O)N[C@@H](CCC(=O)NCCCCCC(=O)N(CCOC1O[C@H](CO)[C@@H](O)[C@H](O)[C@@H]1O)CCO[C@H]1O[C@H](CO)[C@@H](O)[C@H](O)[C@@H]1O)C(=O)NCCCCCC(=O)N(CCOC1O[C@H](CO)[C@@H](O)[C@H](O)[C@@H]1O)CCOC1O[C@H](CO)[C@@H](O)[C@H](O)[C@@H]1O)C(=O)NCCCCCC(=O)NCCO[C@H]1O[C@H](CO[C@H]2O[C@H](CO)[C@@H](O)[C@H](O)[C@@H]2O)[C@@H](O)[C@H](O[C@H]2O[C@H](CO)[C@@H](O)[C@H](O)[C@@H]2O)[C@@H]1O` (some centres unmarked) [IOC-30], the IC50 was found to be 37 nM.

`CC(=O)[C@H](CCCCN)NC(=O)CCCCCNC(=O)[C@H](CCCCNC(=O)[C@H](CCCCNC(=O)CCCCCNC(=O)CN(CC(=O)NCCO[C@@H]1O[C@@H](C)[C@@H](O)[C@@H](O)[C@@H]1O)CC(=O)NCCO[C@@H]1O[C@@H](C)[C@@H](O)[C@@H](O)[C@@H]1O)NC(=O)CN(CC(=O)NCCO[C@@H]1O[C@@H](C)[C@@H](O)[C@@H](O)[C@@H]1O)CC(=O)NCCO[C@@H]1O[C@@H](C)[C@@H](O)[C@@H](O)[C@@H]1O)NC(=O)CN(CC(=O)NCCO[C@@H]1O[C@@H](C)[C@@H](O)[C@@H](O)[C@@H]1O)CC(=O)NCCO[C@@H]1O[C@@H](C)[C@@H](O)[C@@H](O)[C@@H]1O` [IOC-45]: the IC50 came out at 8.91 nM.

Consider `CC(=O)[C@H](CCCCN)NC(=O)CCCCC(=O)NCC(=O)N[C@@H](CCC(=O)N[C@@H](CCC(=O)NCCCCCC(=O)N(CCOC1O[C@H](CO)[C@@H](O)[C@H](O)[C@@H]1O)CCOC1O[C@H](CO)[C@@H](O)[C@H](O)[C@@H]1O)C(=O)NCCCCCC(=O)N(CCOC1O[C@H](CO)[C@@H](O)[C@H](O)[C@@H]1O)CCOC1O[C@H](CO)[C@@H](O)[C@H](O)[C@@H]1O)C(=O)NCCCCCC(=O)NCCO[C@@H]1O[C@H](CO[C@H]2O[C@H](CO)[C@@H](O)[C@H](O)[C@@H]2O)[C@@H](O)[C@H](O[C@H]2O[C@H](CO)[C@@H](O)[C@H](O)[C@@H]2O)[C@@H]1O` (some centres unmarked) [IOC-28], for which the IC50 came to 10.9 nM.

Take `CC(=O)[C@H](CCCCN)NC(=O)CCCCCNC(=O)[C@H](CCCCNC(=O)[C@H](CCCCNC(=O)[C@H](CCCCNC(=O)[C@H](CCCCNC(=O)CCCCCCNC(=O)CN(CC(=O)NCCO[C@H]1O[C@H](CO)[C@@H](O)[C@H](O)[C@@H]1O)CC(=O)NCCO[C@H]1O[C@H](CO)[C@@H](O)[C@H](O)[C@@H]1O)NC(=O)CN(CC(=O)NCCO[C@H]1O[C@H](CO)[C@@H](O)[C@H](O)[C@@H]1O)CC(=O)NCCO[C@H]1O[C@H](CO)[C@@H](O)[C@H](O)[C@@H]1O)NC(=O)CN(CC(=O)NCCO[C@H]1O[C@H](O)[C@@H](O)[C@H](O)[C@@H]1O)CC(=O)NCCO[C@H]1O[C@H](CO)[C@@H](O)[C@H](O)[C@@H]1O)NC(=O)CN(CC(=O)NCCO[C@H]1O[C@H](CO)[C@@H](O)[C@H](O)[C@@H]1O)CC(=O)NCCO[C@H]1O[C@H](CO)[C@@H](O)[C@H](O)[C@@H]1O)NC(=O)CN(CC(=O)NCCO[C@H]1O[C@H](CO)[C@@H](O)[C@H](O)[C@@H]1O)CC(=O)NCCO[C@H]1O[C@H](CO)[C@@H](O)[C@H](O)[C@@H]1O` [IOC-60]: the IC50 was determined as 86.4 nM.

Consider `CC(=O)[C@H](CCCCN)NC(=O)CCCCC(=O)NCC(=O)N[C@@H](CCC(=O)N[C@@H](CCC(=O)NCCCCCC(=O)N(CCOC1O[C@H](CO)[C@@H](O)[C@H](O)[C@@H]1O)CCO[C@H]1O[C@H](CO)[C@@H](O)[C@H](O)[C@@H]1O)C(=O)NCCCCCC(=O)N(CCOC1O[C@H](CO)[C@@H](O)[C@H](O)[C@@H]1O)CCOC1O[C@H](CO)[C@@H](O)[C@H](O)[C@@H]1O)C(=O)NCCCCCC(=O)N(CC(=O)NCCO[C@@H]1O[C@@H](C)[C@@H](O)[C@@H](O)[C@@H]1O)CC(=O)NCCO[C@@H]1O[C@@H](C)[C@@H](O)[C@@H](O)[C@@H]1O` (some centres unmarked) [IOC-51], for which the IC50 was determined as 28.8 nM.

(Values after patent publication US12427187B2, “Glucose-responsive insulin conjugates” (priority 2019, dated 2025).)
